{"source": "patent US6867207B2", "about": "“IL-5 inhibiting 6-azauracil derivatives” (Janssen Pharmaceutica N.V., priority 1997, dated 2005)", "note": "Marks after values point to notes of the source that are not given here."}
{"test_system": "IL-5 production", "experiment": "In vitro inhibition of IL-5 production in human blood (phytohemagglutinin-stimulated whole blood, ELISA)", "type": "cell-based", "conditions": "test dose 1×10^−5 M (values marked *), 48 hours", "in_short": "(§1)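 Percent inhibition of IL-5, quantified by ELISA in cell-free supernatants, is given at a single dose of 1×10^−6 M (or 1×10^−5 M). Threefold-diluted human whole blood from healthy men received compound for 60 min at 37° C before 48 h PHA stimulation at 2 μg/mL.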"}
{"smiles": "Cc1cc(O)nc(SC(c2ccc(Cl)cc2)c2ccc(-n3ncc(=O)[nH]c3=O)cc2Cl)n1", "note": "(racemic) [Compound 60]", "% inh. (percentage inhibition of IL-5 production), marked with *": "24* %"}
{"smiles": "Cn1cnnc1SC(c1ccc(Cl)cc1)c1ccc(-n2ncc(=O)[nH]c2=O)cc1Cl", "note": "(racemic) [Compound 53]", "% inh. (percentage inhibition of IL-5 production), marked with *": "53* %"}
{"test_system": "IL-5 production", "experiment": "In vitro inhibition of IL-5 production in human blood (phytohemagglutinin-stimulated whole blood, ELISA)", "type": "cell-based", "conditions": "test dose 1×10^−5 M (values marked *), 48 hours, read-out: % inh. (percentage inhibition of IL-5 production), marked with *", "in_short": "as §1", "units": {"inhibition at 10 µM": "%"}}
{"smiles": "O=c1cnn(-c2ccc(C(NCc3ncc[nH]3)c3ccc(Cl)cc3)c(Cl)c2)c(=O)[nH]1", "note": "(racemic) [Compound 50, (±)-2-[3-chloro-4-[(4-chlorophenyl)[(1H-imidazol-2-ylmethyl)amino]methyl]phenyl]-1,2,4-triazine-3,5(2H,4H)-dione]", "inhibition at 10 µM": 20}
{"test_system": "IL-5 production", "experiment": "In vitro inhibition of IL-5 production in human blood (phytohemagglutinin-stimulated whole blood, ELISA)", "type": "cell-based", "conditions": "test dose 1×10^−6 M, 48 hours", "in_short": "as §1", "units": {"% inh. (percentage inhibition of IL-5 production)": "%"}}
{"smiles": "CCOc1ccc2nc(SC(c3ccc(Cl)c(C(F)(F)F)c3)c3c(Cl)cc(-n4ncc(=O)[nH]c4=O)cc3Cl)sc2c1", "note": "(stereo not shown) [Compound 394]", "% inh. (percentage inhibition of IL-5 production)": 93}
{"smiles": "O=c1cnn(-c2cc(Cl)c(C(c3ccc(Cl)cc3)c3nc(-c4ccc(-c5ccccc5)cc4)cs3)c(Cl)c2)c(=O)[nH]1", "note": "(racemic) [Comp 30]", "% inh. (percentage inhibition of IL-5 production)": 57}
{"smiles": "CCOC(=O)Cc1nnc(C(c2ccc(Cl)cc2)c2c(Cl)cc(-n3ncc(=O)[nH]c3=O)cc2Cl)o1", "note": "(racemic) [Compound 176]", "% inh. (percentage inhibition of IL-5 production)": 3}
{"smiles": "O=c1cnn(-c2cc(Cl)c(C(c3ccc(Cl)cc3)c3sc(-c4ccccc4Cl)nc3-c3ccccc3Cl)c(Cl)c2)c(=O)[nH]1", "note": "(racemic) [Compound 147]", "% inh. (percentage inhibition of IL-5 production)": 50}
{"smiles": "O=c1cnn(-c2cc(Cl)c(C(Sc3nc4cccnc4s3)c3ccc(Cl)c(C(F)(F)F)c3)c(Cl)c2)c(=O)[nH]1", "note": "(stereo not shown) [Compound 382]", "% inh. (percentage inhibition of IL-5 production)": 95}
{"smiles": "Cc1nc(C(c2ccc(Cl)cc2)c2ccc(-n3ncc(=O)[nH]c3=O)cc2Cl)c(-c2ccccc2)s1", "note": "(racemic) [Compound 369]", "% inh. (percentage inhibition of IL-5 production)": 66}
{"smiles": "CCOC(=O)c1cnc(SC(c2ccc(Cl)cc2)c2ccc(-n3ncc(=O)[nH]c3=O)cc2Cl)nc1O", "note": "(racemic) [Compound 339]", "% inh. (percentage inhibition of IL-5 production)": 35}
{"smiles": "O=C(CO)Nc1cccc(-c2nnc(C(c3ccc(Cl)cc3)c3c(Cl)cc(-n4ncc(=O)[nH]c4=O)cc3Cl)o2)c1", "note": "(racemic) [Compound 215]", "% inh. (percentage inhibition of IL-5 production)": 54}
{"smiles": "O=c1cnn(-c2ccc(C(c3ccc(Cl)cc3)c3cnc(-c4ccccc4)s3)c(Cl)c2)c(=O)[nH]1", "note": "(racemic) [Compound 141]", "% inh. (percentage inhibition of IL-5 production)": 64}
{"smiles": "CN(Cc1sc(C(c2ccc(Cl)cc2)c2c(Cl)cc(-n3ncc(=O)[nH]c3=O)cc2Cl)nc1-c1ccccc1)C1CCCCC1", "note": "(racemic) [Comp 334]", "% inh. (percentage inhibition of IL-5 production)": 75}
{"smiles": "O=c1cnn(-c2ccc(C(Nc3nccs3)c3ccc(Cl)cc3)c(Cl)c2)c(=O)[nH]1", "note": "(racemic) [Compound 44]", "% inh. (percentage inhibition of IL-5 production)": 40}
{"smiles": "COc1cc(-n2ncc(=O)[nH]c2=O)ccc1C(C)(c1ccc(Cl)c(C(F)(F)F)c1)c1nc(-c2ccccc2)cs1", "note": "(racemic) [Comp 255]", "% inh. (percentage inhibition of IL-5 production)": 67}
{"smiles": "O=c1cnn(-c2cc(Cl)c(C(Sc3nc(-c4ccccc4)cs3)c3ccc(Cl)c(C(F)(F)F)c3)c(Cl)c2)c(=O)[nH]1", "note": "(stereo not shown) [Compound 381]", "% inh. (percentage inhibition of IL-5 production)": 95}
{"smiles": "O=c1cnn(-c2cc(Cl)c(C(c3ccc(Cl)cc3)c3ncc(-c4ccccc4)s3)c(Cl)c2)c(=O)[nH]1", "note": "(racemic) [Comp 267]", "% inh. (percentage inhibition of IL-5 production)": 81}
{"smiles": "O=c1cnn(-c2cc(Cl)c(C(Sc3nc4cccnc4s3)c3ccc(Cl)cc3)c(Cl)c2)c(=O)[nH]1", "note": "(stereo not shown) [Compound 376]", "% inh. (percentage inhibition of IL-5 production)": 92}
{"smiles": "O=c1cnn(-c2cc(Cl)c(C(c3ccc(Cl)c(C(F)(F)F)c3)c3nc(-c4ccccc4)cs3)c(Cl)c2)c(=O)[nH]1", "note": "(racemic) [Comp 226]", "% inh. (percentage inhibition of IL-5 production)": 93}
{"smiles": "CC(c1ccc(Cl)c(C(F)(F)F)c1)(c1nc(-c2ccccc2)c(-c2ccccc2)s1)c1c(Cl)cc(-n2ncc(=O)[nH]c2=O)cc1Cl", "note": "(racemic) [Comp 237]", "% inh. (percentage inhibition of IL-5 production)": 82}
{"smiles": "COC1CCN(Cc2sc(C(c3ccc(Cl)cc3)c3c(Cl)cc(-n4ncc(=O)[nH]c4=O)cc3Cl)nc2-c2ccccc2)CC1.Cl.O", "note": "(racemic) [Comp 314]", "% inh. (percentage inhibition of IL-5 production)": 81}
{"smiles": "O=c1cnn(-c2cc(Cl)c(C(c3ccc(Cl)c(C(F)(F)F)c3)c3nc(-c4ccccc4Cl)cs3)c(Cl)c2)c(=O)[nH]1", "note": "(racemic) [Comp 254]", "% inh. (percentage inhibition of IL-5 production)": 86}
{"smiles": "O=c1cnn(-c2cc(Cl)c(C(c3ccc(Cl)cc3)c3nnc(Cc4ccccc4)o3)c(Cl)c2)c(=O)[nH]1", "note": "(racemic) [Compound 173]", "% inh. (percentage inhibition of IL-5 production)": 44}
{"smiles": "CN1CCN(C(=O)c2sc(C(c3ccc(Cl)cc3)c3c(Cl)cc(-n4ncc(=O)[nH]c4=O)cc3Cl)nc2-c2ccccc2)CC1", "note": "(racemic) [Comp 304]", "% inh. (percentage inhibition of IL-5 production)": 35}
{"smiles": "O=c1cnn(-c2cc(Cl)c(C(Sc3ncccn3)c3ccc(Cl)cc3)c(Cl)c2)c(=O)[nH]1", "note": "(single isomer, unassigned) [Compound 346]", "% inh. (percentage inhibition of IL-5 production)": 86}
{"smiles": "Nc1ccccc1-c1nnc(C(c2ccc(Cl)cc2)c2c(Cl)cc(-n3ncc(=O)[nH]c3=O)cc2Cl)o1", "note": "(racemic) [Compound 211]", "% inh. (percentage inhibition of IL-5 production)": 83}
{"smiles": "CN(C)C(=O)CCc1sc(C(c2ccc(Cl)cc2)c2c(Cl)cc(-n3ncc(=O)[nH]c3=O)cc2Cl)nc1-c1ccccc1", "note": "(racemic) [Comp 281]", "% inh. (percentage inhibition of IL-5 production)": 91}
{"smiles": "O=C(NCc1sc(C(c2ccc(Cl)cc2)c2c(Cl)cc(-n3ncc(=O)[nH]c3=O)cc2Cl)nc1-c1ccccc1)Nc1ccc(Cl)cc1", "note": "(racemic) [Comp 333]", "% inh. (percentage inhibition of IL-5 production)": 61}
{"smiles": "O=c1cnn(-c2ccc(C(Sc3ccc(F)cc3)c3ccc(Cl)cc3)c(Cl)c2)c(=O)[nH]1", "note": "(racemic) [Compound 57]", "% inh. (percentage inhibition of IL-5 production)": 50}
{"smiles": "O=c1cnn(-c2cc(Cl)c(C(c3ccc(Cl)cc3)c3nc(-c4cccc(F)c4)cs3)c(Cl)c2)c(=O)[nH]1", "note": "(racemic) [Comp 21]", "% inh. (percentage inhibition of IL-5 production)": 91}
{"smiles": "O=c1cnn(-c2cc(Cl)c(C(Sc3ncccn3)c3ccc(Cl)cc3)c(Cl)c2)c(=O)[nH]1", "note": "(racemic) [Compound 340]", "% inh. (percentage inhibition of IL-5 production)": 88}
{"smiles": "CCc1sc(C(c2ccc(Cl)cc2)c2c(Cl)cc(-n3ncc(=O)[nH]c3=O)cc2Cl)nc1-c1cccc(F)c1", "note": "(racemic) [Comp 260]", "% inh. (percentage inhibition of IL-5 production)": 98}
{"smiles": "Cc1sc(C(c2ccc(Cl)cc2)c2c(Cl)cc(-n3ncc(=O)[nH]c3=O)cc2Cl)nc1-c1cccc(F)c1", "note": "(racemic) [Comp 287]", "% inh. (percentage inhibition of IL-5 production)": 94}
{"smiles": "CC(c1ccc(Cl)c(C(F)(F)F)c1)(c1nnc(-c2ccccc2)o1)c1ccc(-n2ncc(=O)[nH]c2=O)cc1Cl", "note": "(racemic) [Compound 155]", "% inh. (percentage inhibition of IL-5 production)": 80}
{"smiles": "O=c1cnn(-c2cc(Cl)c(C(Sc3nccc(-c4ccccc4)n3)c3ccc(Cl)c(C(F)(F)F)c3)c(Cl)c2)c(=O)[nH]1", "note": "(racemic) [Compound 342]", "% inh. (percentage inhibition of IL-5 production)": 93}
{"smiles": "O=c1cnn(-c2cc(Cl)c(C(c3ccc(Cl)cc3)c3nnc(-c4ccccc4F)o3)c(Cl)c2)c(=O)[nH]1", "note": "(racemic) [Compound 156]", "% inh. (percentage inhibition of IL-5 production)": 91}
{"smiles": "Nc1ccc(SC(c2ccc(Cl)c(C(F)(F)F)c2)c2c(Cl)cc(-n3ncc(=O)[nH]c3=O)cc2Cl)cc1", "note": "(stereo not shown) [Compound 393]", "% inh. (percentage inhibition of IL-5 production)": 93}
{"smiles": "Cn1ccnc1C(c1ccc(Cl)cc1)c1c(Cl)cc(-n2ncc(=O)[nH]c2=O)cc1Cl", "note": "(racemic) [Comp 109]", "% inh. (percentage inhibition of IL-5 production)": 35}
{"smiles": "O.O=c1cnn(-c2ccc(C(Sc3nccc(O)n3)c3ccc(Cl)cc3)c(Cl)c2)c(=O)[nH]1", "note": "(racemic) [Compound 61]", "% inh. (percentage inhibition of IL-5 production)": 14}
{"smiles": "CN(C)Cc1csc(C(c2ccc(Cl)cc2)c2c(Cl)cc(-n3ncc(=O)[nH]c3=O)cc2Cl)n1", "note": "(racemic) [Comp 240]", "% inh. (percentage inhibition of IL-5 production)": 54}
{"smiles": "O=c1cnn(-c2cc(Cl)c(C(c3ccc(Cl)cc3)c3nc(-c4ccc(Br)cc4)cs3)c(Cl)c2)c(=O)[nH]1", "note": "(racemic) [Comp 294]", "% inh. (percentage inhibition of IL-5 production)": 85}
{"smiles": "O=c1cnn(-c2cc(Cl)c(C(c3ccc(Cl)cc3)c3csc(-c4cccnc4)n3)c(Cl)c2)c(=O)[nH]1", "note": "(racemic) [Compound 375]", "% inh. (percentage inhibition of IL-5 production)": 91}
{"smiles": "Nc1cc(SC(c2ccc(Cl)cc2)c2ccc(-n3ncc(=O)[nH]c3=O)cc2Cl)nc(N)n1", "note": "(racemic) [Compound 68]", "% inh. (percentage inhibition of IL-5 production)": 60}
{"smiles": "O=c1cnn(-c2cc(Cl)c(C(CSc3ccccn3)c3ccc(Cl)cc3)c(Cl)c2)c(=O)[nH]1", "note": "(racemic) [Compound 422, (±)-2-[3,5-dichloro[1-(4-chlorophenyl)-2-(2-pyridinylthio)ethyl]phenyl-1,2,4-triazine-3,5(2H,4H)-dione]", "% inh. (percentage inhibition of IL-5 production)": 87}
{"smiles": "Cc1sc(C(c2ccc(Cl)cc2)c2c(Cl)cc(-n3ncc(=O)[nH]c3=O)cc2Cl)nc1-c1ccccc1F", "note": "(racemic) [Comp 259]", "% inh. (percentage inhibition of IL-5 production)": 95}
{"smiles": "O=c1cnn(-c2cc(Cl)c(C(c3ccc(Cl)cc3)c3nnc(-c4ccccc4)s3)c(Cl)c2)c(=O)[nH]1", "note": "(stereo not shown) [Comp 427]", "% inh. (percentage inhibition of IL-5 production)": 72}
{"test_system": "IL-5 production", "experiment": "In vitro inhibition of IL-5 production in human blood (phytohemagglutinin-stimulated whole blood, ELISA)", "type": "cell-based", "conditions": "test dose 1×10^−6 M, 48 hours, read-out: % inh. (percentage inhibition of IL-5 production)", "in_short": "as §1", "units": {"inhibition at 1 µM": "%"}}
{"smiles": "NC(c1ccc(Cl)cc1)(c1nccs1)c1ccc(-n2ncc(=O)[nH]c2=O)cc1Cl", "note": "(racemic) [Compound 35, (±)-2-[3-chloro-4-[amino-(4-chlorophenyl)-2-thiazolylmethyl]phenyl]-1,2,4-triazine-3,5(2H,4H)-dione]", "inhibition at 1 µM": 56}
{"smiles": "O=c1cnn(-c2cc(Cl)c(C(CO)c3ccc(Cl)cc3)c(Cl)c2)c(=O)[nH]1", "note": "(racemic) [Compound 420, (±)-2-[3,5-dichloro-4-[1-(4-chlorophenyl)-2-hydroxyethyl]phenyl]-1,2,4-triazine-3,5(2H,4H)-dione]", "inhibition at 1 µM": 33}
{"smiles": "CC(c1ccc(Cl)cc1)(c1nc2ccccc2o1)c1ccc(-n2ncc(=O)[nH]c2=O)cc1Cl", "note": "(racemic) [Compound 132, (±)-2-[3-chloro-4-[1-(4-chlorophenyl)-1-(2-benzoxazolyl)ethyl]phenyl]-1,2,4-triazine-3,5(2H,4H)-dione]", "inhibition at 1 µM": 55}
